ChEMBL document CHEMBL1129930, “Analogues of methotrexate in rheumatoid arthritis. 2. Effects of 5-deazaaminopterin, 5,10-dideazaaminopterin, and analogues on type II collagen-induced arthritis in mice” (J Med Chem, 1997)

Key:
[1] = Concentration required to inhibit the growth of chang liver cells.; type: functional; conditions: Homo sapiens
L1210 = experiment: Concentration required to inhibit the growth of L1210 cells.; type: functional, cell-based; conditions: Mus musculus
Mus musculus [2] = experiment: Incidence of disease (mouse type II collagen) was scored as the percentage of animals within each experimental group that exhibited joint or limb inflammation on day 37 at intraperitoneal dose of 12 mg/kg; type: functional
Mus musculus [3] = experiment: Incidence of disease (mouse type II collagen) was scored as the percentage of animals within each experimental group that exhibited joint or limb inflammation on day 37 at intraperitoneal dose of 18 mg/kg; type: functional
Mus musculus [4] = experiment: Incidence of disease (mouse type II collagen) was scored as the percentage of animals within each experimental group that exhibited joint or limb inflammation on day 23 at intraperitoneal dose of 12 mg/kg; type: functional
Mus musculus [5] = experiment: Incidence of disease (mouse type II collagen) was scored as the percentage of animals within each experimental group that exhibited joint or limb inflammation on day 23 at intraperitoneal dose of 18 mg/kg; type: functional
Mus musculus [6] = experiment: Incidence of disease (mouse type II collagen) was scored as the percentage of animals within each experimental group that exhibited joint or limb inflammation on day 23 at intraperitoneal dose of 6 mg/kg; type: functional
Mus musculus [7] = experiment: Incidence of disease (mouse type II collagen) was scored as the percentage of animals within each experimental group that exhibited joint or limb inflammation on day 44 at intraperitoneal dose of 12 mg/kg; type: functional
Mus musculus [8] = experiment: Incidence of disease (mouse type II collagen) was scored as the percentage of animals within each experimental group that exhibited joint or limb inflammation on day 44 at intraperitoneal dose of 18 mg/kg; type: functional
Mus musculus [9] = experiment: Incidence of disease (mouse type II collagen) was scored as the percentage of animals within each experimental group that exhibited joint or limb inflammation on day 44 at intraperitoneal dose of 6 mg/kg; type: functional
Mus musculus [10] = experiment: Incidence of disease (mouse type II collagen) was scored as the percentage of animals within each experimental group that exhibited joint or limb inflammation on day 30 at intraperitoneal dose of 12 mg/kg; type: functional
Mus musculus [11] = experiment: Incidence of disease (mouse type II collagen) was scored as the percentage of animals within each experimental group that exhibited joint or limb inflammation on day 30 at intraperitoneal dose of 18 mg/kg; type: functional
Mus musculus [12] = experiment: Incidence of disease (mouse type II collagen) was scored as the percentage of animals within each experimental group that exhibited joint or limb inflammation on day 30 at intraperitoneal dose of 6 mg/kg; type: functional
Mus musculus [13] = experiment: Incidence of disease (mouse type II collagen) was scored as the percentage of animals within each experimental group that exhibited joint or limb inflammation on day 37 at intraperitoneal dose of 6 mg/kg; type: functional
Mus musculus [14] = experiment: Tested for antiinflammatory activity on mouse type II collagen arthritis as Paw swelling of all animals in each group on day 30 at intraperitoneal dose of 12 mg/kg; type: functional
Mus musculus [15] = experiment: Tested for antiinflammatory activity on mouse type II collagen arthritis as Paw swelling of all animals in each group on day 30 at intraperitoneal dose of 18 mg/kg; type: functional
Mus musculus [16] = experiment: Tested for antiinflammatory activity on mouse type II collagen arthritis as Paw swelling of all animals in each group on day 30 at intraperitoneal dose of 6 mg/kg; type: functional
Mus musculus [17] = experiment: Tested for antiinflammatory activity on mouse type II collagen arthritis as Paw swelling of all animals in each group on day 23 at intraperitoneal dose of 12 mg/kg; type: functional
Mus musculus [18] = experiment: Tested for antiinflammatory activity on mouse type II collagen arthritis as Paw swelling of all animals in each group on day 23 at intraperitoneal dose of 18 mg/kg; type: functional
Mus musculus [19] = experiment: Tested for antiinflammatory activity on mouse type II collagen arthritis as Paw swelling of all animals in each group on day 23 at intraperitoneal dose of 6 mg/kg; type: functional
Mus musculus [20] = experiment: Tested for antiinflammatory activity on mouse type II collagen arthritis as Paw swelling of all animals in each group on day 44 at intraperitoneal dose of 12 mg/kg; type: functional
Mus musculus [21] = experiment: Tested for antiinflammatory activity on mouse type II collagen arthritis as Paw swelling of all animals in each group on day 44 at intraperitoneal dose of 18 mg/kg; type: functional
Mus musculus [22] = experiment: Tested for antiinflammatory activity on mouse type II collagen arthritis as Paw swelling of all animals in each group on day 37 at intraperitoneal dose of 18 mg/kg; type: functional
Mus musculus [23] = experiment: Tested for antiinflammatory activity on mouse type II collagen arthritis as Paw swelling of all animals in each group on day 37 at intraperitoneal dose of 6 mg/kg; type: functional
Mus musculus [24] = experiment: Tested for antiinflammatory activity on mouse type II collagen arthritis as Paw swelling of all animals in each group on day 37 at intraperitoneal dose of 12 mg/kg; type: functional
Mus musculus [25] = experiment: Tested for antiinflammatory activity on mouse type II collagen arthritis as Paw swelling of all animals in each group on day 44 at intraperitoneal dose of 6 mg/kg; type: functional

- IC50 (L1210): 27 nM
SMILES: Nc1nc(N)c2cc(CCc3ccc(C(=O)NC(CCC(=O)O)C(=O)O)cc3)cnc2n1 (stereo unspecified)
- IC50 [1]: 37 nM
- Animals (Mus musculus [2]): 12%
- Animals (Mus musculus [3]): 0%
- Animals (Mus musculus [4]): 0%
- Animals (Mus musculus [5]): 12%
- Animals (Mus musculus [6]): 12%
- Animals (Mus musculus [7]): 25%
- Animals (Mus musculus [8]): 0%
- Animals (Mus musculus [9]): 38%
- Animals (Mus musculus [10]): 12%
- Animals (Mus musculus [11]): 0%
- Animals (Mus musculus [12]): 25%
- Animals (Mus musculus [13]): 25%
- Paw swelling (Mus musculus [14]): 2.24 mm
- Paw swelling (Mus musculus [15]): 2.16 mm
- Paw swelling (Mus musculus [16]): 2.28 mm
- Paw swelling (Mus musculus [17]): 2.12 mm
- Paw swelling (Mus musculus [18]): 2.15 mm
- Paw swelling (Mus musculus [19]): 2.17 mm
- Paw swelling (Mus musculus [20]): 2.28 mm
- Paw swelling (Mus musculus [21]): 2.2 mm
- Paw swelling (Mus musculus [22]): 2.15 mm
- Paw swelling (Mus musculus [23]): 2.26 mm
- Paw swelling (Mus musculus [24]): 2.24 mm
- Paw swelling (Mus musculus [25]): 2.29 mm
